Consider eleven molecules from patent US12281304B2, “Compositions and methods for treating and preventing muscular disorders and dystrophies, steroid side effects, and inflammation” (Children's National Medical Center, priority 2018, dated 2025).

One data set concerns miRNA sequences.
Assay: not given
The conditions noted are these: known mechanism listed in Table 6; compounds will be tested; cited from earlier work.
Consider `O=C(Nc1cccc(Br)c1)c1cccc(S(=O)(=O)N2CCCCCC2)c1` [AK-7], for which the Activity result is given as “NAD-dependent deacetylase sirtuin 2 (SIRT2) inhibitor”.
Consider `COc1cc2nc(N3CCCN(C)CC3)nc(NC3CCN(Cc4ccccc4)CC3)c2cc1OC` [BIX-01294], for which the Activity result is reported as “G9a histone methyltransferase/ GLP histone methyltransferase (G9a/GLP) inhibitor”.
For `COC(=O)CNC(=O)C(=O)OC` [DMOG], the Activity result was “Prolyl hydroxylase domain- containing protein (PHD/JMJD2A) inhibitor”.
On to `CN(C)NC(=O)CCC(=O)O` [Daminozide], for which the Activity result is given as “KDM2/KDM7 JmjC subfamily of histone demethylase inhibitor”.
Consider `O=C(/C=C/c1cccnc1)NCCCCC1CCN(C(=O)c2ccccc2)CC1` [FK-866 HCI], for which the Activity result is “Nicotinamide phosphoribosyl- transferase (Nampt) inhibitor”.
For the molecule `O=C(O)CCNc1cc(N2CCc3ccccc3CC2)nc(-c2ccccn2)n1` [GSK-J1 (cell impermeable)], the Activity result was “Jumonji H3K27 histone demethylase (JMJD3/UTX) inhibitor”.
For `Cc1ccc(-n2sc3ccccc3c2=O)cc1` [PBIT], the Activity result is reported as “Jumanji AT-rich interactive domain 1 family of lysine demethylases (JARID1) inhibitor”.
Consider `N[C@@H]1C[C@H]1c1ccccc1` [Tranyl- cypromine hemisulfate], for which the Activity entry was “Lysine-specific demethylase 1 (LSD1/BHC110) inhibitor”.

The target of a further data set is T1, TLR7 (Mus musculus, UniProt P58681).
T1 construct: endogenous in cells; host or cells: RAW 264.7 murine macrophage cells
T1 sequence (P58681 27-1050): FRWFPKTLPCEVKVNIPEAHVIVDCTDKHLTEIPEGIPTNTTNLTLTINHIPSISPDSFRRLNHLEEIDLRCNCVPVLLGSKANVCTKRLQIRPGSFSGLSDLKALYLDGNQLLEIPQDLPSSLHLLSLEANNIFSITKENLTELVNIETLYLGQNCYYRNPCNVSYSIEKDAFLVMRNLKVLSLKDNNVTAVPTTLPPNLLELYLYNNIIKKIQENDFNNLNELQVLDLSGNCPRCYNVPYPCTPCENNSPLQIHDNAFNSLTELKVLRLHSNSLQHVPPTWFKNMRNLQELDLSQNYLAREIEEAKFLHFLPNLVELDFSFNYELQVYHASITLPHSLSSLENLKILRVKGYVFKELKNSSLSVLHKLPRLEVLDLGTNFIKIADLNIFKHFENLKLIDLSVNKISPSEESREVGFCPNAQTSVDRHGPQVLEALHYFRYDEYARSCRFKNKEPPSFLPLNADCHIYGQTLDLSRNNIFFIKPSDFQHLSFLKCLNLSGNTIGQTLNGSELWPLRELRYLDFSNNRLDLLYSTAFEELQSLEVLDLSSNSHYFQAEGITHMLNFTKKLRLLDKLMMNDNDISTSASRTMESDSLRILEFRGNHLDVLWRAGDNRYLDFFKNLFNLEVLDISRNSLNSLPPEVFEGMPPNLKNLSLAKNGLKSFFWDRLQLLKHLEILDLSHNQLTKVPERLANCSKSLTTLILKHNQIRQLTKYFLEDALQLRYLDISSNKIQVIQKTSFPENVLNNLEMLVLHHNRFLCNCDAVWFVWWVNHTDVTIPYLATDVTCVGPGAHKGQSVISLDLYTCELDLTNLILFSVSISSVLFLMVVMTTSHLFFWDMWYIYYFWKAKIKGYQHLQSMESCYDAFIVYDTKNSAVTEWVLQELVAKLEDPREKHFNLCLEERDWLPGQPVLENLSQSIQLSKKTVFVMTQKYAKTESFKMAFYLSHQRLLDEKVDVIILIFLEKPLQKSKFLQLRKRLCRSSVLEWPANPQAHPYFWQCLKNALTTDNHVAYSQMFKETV
As to the kind of experiment: Competition of TLR7 activation by uridine-deficient mutant miRNA in RAW 264.7 cells (secreted TNF-α). As to conditions: constant dose of parent miRNA with increasing doses of mutant, 48 hours. It is filed as cell-based, murine. The protocol: A) HEK 293 cells were transfected with a plasmid encoding TLR7-YFP (green) and either a Cy5-miR-146a mutant microRNA or Cy5-miR-142-3p mutant microRNA (red) […] post-transfection cells were fixed and confocal microscopy was performed using an Olympus FV-1000 at 100× magnification. […] B) RAW 264.7 murine macrophage cells were treated with a constant dose of miR-146a with increasing doses of a uridine-deficient miR-146a mutant. 48 hours later TLR7 activation was assessed via secreted TNF-α. […] C) RAW 264.7 murine macrophage cells were treated with a constant dose of […] with increasing doses of a uridine-deficient miR-142-3pmutant. 48 hours later TLR7 activation was assessed via secreted TNF-α.
As for “miR-142-3pmut: uridine-deficient mutant microRNA, sequence agaagagaaaccaacaaaaugga (SEQ ID NO:73) (AGAAGAGAAACCAACAAAAUGGA; listed as RNA, chemistry not given here; listed as Homo sapiens)”, the “competition of TLR7 activation by the parent miRNA” value was “can compete away TLR7 activation”.
On to “miR-146amut: uridine-deficient mutant microRNA, sequence agagaacagaaaaccacgggaa (SEQ ID NO:72) (AGAGAACAGAAAACCACGGGAA; listed as DNA, chemistry not given here; listed as Homo sapiens)”, for which the “competition of TLR7 activation by the parent miRNA” value is “can compete away the activation of TLR7 by miR-146a”.

A further data set addresses T2, Toll-like receptor 7 (Mus musculus, UniProt P58681).
T2 construct: endogenous in cells; host or cells: RAW 264.7 murine macrophage cells
T2 sequence (P58681 27-1050): T1 sequence (P58681 27-1050)
Description: Secreted TNF-α (ALPHA-LISA) in RAW 264.7 macrophages treated with miRNAs (TLR7 activation). As to conditions: RAW 264.7 cells, 5 ug RNA, 6, 24 and 48 h. It is filed as cell-based, murine. The protocol:
FIG. 11A-11C depict how miR-146a and miR-142-3p bind to and activate the inflammatory Toll-like receptor 7. 11A) RAW 264.7 murine macrophage cells were treated the indicated treatments for 6, 24 and 48 h: 1) negative CTRL (−)=no treatment; 2) Gardiquimod (3 ug/mL)=+control for TLR7 activation; 3) miR-146a (5 ug) sequence: […] (SEQ ID NO:70), 4) miR-142-3p (5 ug) […] (SEQ ID NO:71); 5) miR-146amut (5 ug, sequence: […] (SEQ ID NO:72)); 6) miR-142-3pmut (5 ug, sequence: […] (SEQ ID NO:73)). After the indicated timepoints, media was collected and an ALPHA-LISA was performed to measure the amount of secreted TNF-α. […] B) RAW 264.7 murine macrophage cells were treated with gardiquimod or the indicated microRNAs for 48 h, where peak activation was observed. Secreted TNF-α was assessed as in A) using an ALPHA-LISA. C) HEK 293 cells were transfected with a plasmid encoding TLR7-YFP (green) and either a Cy5-miR-146a or Cy5-miR-142-3p (red). 48 h post-transfection cells were fixed and confocal microscopy was performed using an Olympus FV-1000 at 100× magnification.
With “miR-142-3p: microRNA, sequence uguaguguuuccuacuuuaugga (SEQ ID NO:71) (UGUAGUGUUUCCUACUUUAUGGA; listed as RNA, chemistry not given here; listed as Homo sapiens)”, the “secretion of TNF-α (TLR7 activation)” value is “activate secretion of TNF-α”.
As for “miR-142-3pmut: uridine-deficient mutant microRNA, sequence agaagagaaaccaacaaaaugga (SEQ ID NO:73) (AGAAGAGAAACCAACAAAAUGGA; listed as RNA, chemistry not given here; listed as Homo sapiens)”, the “secretion of TNF-α (TLR7 activation)” value is “prevents activation”.
Same read-out and setting: under “miR-146amut: uridine-deficient mutant microRNA, sequence agagaacagaaaaccacgggaa (SEQ ID NO:72) (AGAGAACAGAAAACCACGGGAA; listed as DNA, chemistry not given here; listed as Homo sapiens)” stands “prevents activation”.
